In data set [1] the test system is antibody to sheep red blood cells. Nature of the data set: 75 percent reduction of control antibody titer in mice by subcutaneous, percutaneous and oral routes (Table 16). Format: in vivo, male Swiss mice. Particulars: Mus musculus, Erythrocyte, × 10 daily doses commencing 3 days before antigen i.v. On the procedure:
Subcutaneous, percutaneous, and oral activity have been achieved as indicated in Table 16 which follows employing representative compounds from the above entitled application. […] Except as indicated, the tests were performed using groups of five 20-gram male Swiss mice injected with 5×10^7 sheep red blood cells intravenously for each drug level. Ten (daily) administrations of drug were made commencing three days prior to red blood cell injection. On the day following the final treatment (7 days after red blood cell injection) the animals were bled by cardiac puncture, the sera from each five-mouse-group were pooled, and antibody titers of these serum pools and corresponding serum pools from control (untreated) mouse groups were determined. The results are expressed as the minimum drug dose effecting 75 percent reduction of control antibody titer: […]

For data set [2], the system named is twelve histidine-auxotrophs of Salmonella typhimurium. Type of data set: cell-based. On the procedure:
(§1) The in vivo and in vitro mutagenic potential of 1-(6-methoxy-2-benzothiazolyl)-3-phenyl-urea was negative when tested versus the twelve histidine-auxotrophs of Salmonella typhimurium at a level of 300 mg/kg in vivo and 750 mcg/ml in vitro. Imuran and Cytoxan, compounds with immunosuppressive activity; Streptozotacin, N-nitrosodimethylamine (DMNA) and trimethylenemelamine (TEM) known mutagens and/or carcinogens; and Acetylsalicylic Acid (ASA) were used as control compounds.
The plates were read as follows:
(§2) Compounds found active in the qualitative test were further tested. The culture to be tested was grown to stationary phase in tryptone yeast broth and then diluted to a viable count of about 9×10^7 organisms per milliliter.
Eleven log4 dilutions of the test compound were made covering a range that would allow survival of nonlethal mutants. […] Final drug concentrations were calculated from 4-ml. volumes (3 ml. drug dilution +1 ml. test organism). Two of the "0" drug tubes were immediately plated at 10° dilution in minimal medium and 10^-5, 10^-6, 10^-7 dilutions in medium containing excess histidine (40 mcg/ml.) Spontaneous revertants (histidine+) were detected in the 10° dilution. Mutable population (histidine-) were detected in the 10^-5, 10^-6, and 10^-7 dilutions. […] All minimal media plates were counted. […]

Data set [3] relates to graft versus host reaction. Put plainly: Graft versus host (GVH) reaction, spleen weight (Tables 20, 21). Format: in vivo, mice (C57BL donors, F1 hybrid C57BL×C3H recipients). On the procedure: In this determination, […] (C57BL) mouse spleen cells are injected into mice of an F1 hybrid strain (C57BL×C3H). […] The injected cells, however, mount a reaction to the recipient's tissues due to the foreign C3H-derived antigens. As a consequence, the recipient's spleen becomes enlarged. Immunosuppressive therapy prevents or reduces this enlargement. Thus, spleen weights provide a measure of the GVH reaction and its reduction under immunosuppression.
Treated and GVH control animals receive an intraperitoneal injection of 1.2×10^9 splenic lymphocytes from the C57 donors. Spleens are weighed ten days later. Spleen weights derived from groups of recipient mice receiving genetically homologous, i.e., syngeneic cells (C57BL×C3H) provide normal control values for calculating percent inhibition in drug-treated groups. For example, mice given 13 daily topical doses of 1-(4,5,6,7-tetra-hydro-2-benzothiazolyl)-3-phenyl urea show a 62% reduction in GVH reaction relative to controls, as set forth in Table 20.
Using this procedure, three compounds from the above useful in the processes of this invention have been compared with several reference immunosuppressive drugs. Treatment levels defining the 50 percent inhibitory dose have been determined.

For data set [4], the system named is twelve histidine-auxotrophs of Salmonella typhimurium. Type of data set: in vivo, Salmonella typhimurium in Cox white Swiss male mice. The conditions noted are these: 300 mg/kg. As to the method:
as §1
A. Drug Administration: Appropriate solvents were used where applicable with a solvent control run within each test. The compounds to be tested were given either subcutaneously along the backbone of the mouse (0.1 ml.) or by oral gavage (0.5 ml.) B. Inoculation Technique: The histidine- cultures G46, C209, C3076, and D3056 used as the TA15 series have lost pathogenicity to mice because of absence or decrease in the lipopolysaccharide coat. The organisms were grown to stationary phase, then diluted with normal saline to give an inoculum near 1×10^8 organisms per milliliter. The abdominal area of the drug-treated mouse was swabbed with alcohol and two milliliters of bacterial culture were injected into the abdominal cavity of the mouse. The mice were returned to their cages for 3-4 hours.
C. Autopsy and Recovery: The mice were sacrificed individually by cervical dislocation prior to each autopsy. […]

The subject of data set [5] is mouse skin graft rejection (AKR skin on C3H mice). Put plainly: Suppression of rejection of mouse-tail skin grafts (Table 19). Format: in vivo, mice (C3H recipients, AKR donors). Particulars: 50 mg/kg/2 days, POT vehicle, control 19.6 ± 1.3. From the text: Compounds disclosed herein have shown activity in suppressing the rejection of mouse skin grafts. […] Albino tail skin segments (AKR strain) were grafted onto the tails of groups of ten agouti recipient mice (C3H strain). Results achieved with two therapy regimens employing 1-(6-methoxy-2-benzothiazolyl)-3-phenyl urea were as follows:
*Treatment was commenced 3 days prior to grafting and continued every 2nd
**50% polyethylene glycol, 40% corn oil, 10% Tween 80

The test system of data set [6] is Salmonella typhimurium G46 missense histidine-auxotroph. Put plainly: Qualitative in vitro prescreen for mutagenicity, G46 indicator (Table 22). Particulars: 200 mcg disc.
Description: Filter paper discs 1/4" were impregnated with 200 mcg of test compound using either H2 O or DMSO as solvent. The discs were placed on Petri dishes containing minimal media which had been individually seeded with one of the twelve tester strains. […] A uniform circle of colonies appear around the pad when a compound with mutagenic potential is present. The test compound forms a concentration gradient as it diffuses from the pad. Occasionally, there is a clear ring in close proximity to the pad surrounded by a uniform circle of revertant colonies which indicates a lethal mutation at high concentration of compound and nonlethal mutation at lesser concentration. A single pad thus allows one to test a compound over a wide range of concentrations. Histidine+ colonies were developed enough to read after 48 hr. incubation at 37° C. The plates were read as follows:
A. background zone, if present, is measured in millimeters, if not, a negative is recorded (-).
B. mutant zone is measured in millimiters, if present; if not, a negative (-) is recorded.
C. the mutation frequency can be estimated from density of mutant colonies as follows:
1. Low frequency--few colonies
2. Moderate frequency--many colonies
3. High frequency--dense ring of colonies
4. No colonies recorded (-)
For data set [7] the test system is unchanged. Format: cell-based. The conditions noted are these: 750 mcg/ml. As to the method: as §2
Eleven log4 dilutions of the test compound were made covering a range that would allow survival of nonlethal mutants. The dilutions were made in Spizizen's minimal media with minute amounts of histidine and biotin (20 nM) each in […]. tubes. Each tube contained 3 ml. after dilution. Replicate 1 ml. aliquots of test organism were added to each tube including six "0" drug tubes. Final drug concentrations were calculated from 4-ml. volumes (3 ml. drug dilution +1 ml. test organism). Two of the "0" drug tubes were immediately plated at 10° dilution in minimal medium and 10^-5, 10^-6, 10^-7 dilutions in medium containing excess histidine (40 mcg/ml.) Spontaneous revertants (histidine+) were detected in the 10° dilution. Mutable population (histidine-) were detected in the 10^-5, 10^-6, and 10^-7 dilutions. All remaining dilutions were incubated in a Dubonoff shaker at 37° C. for 4 hr., then iced at 4° C. […] A 1-ml. aliquot from each "0" control was also plated at 10^-6, 10^-7, and 10^-8 dilutions in media with excess histidine to detect growth of mutable population (histidine-); normally there are 3-4 generations of the mutable population. All minimal media plates were counted. A dose response increase in revertants above spontaneous background indicated mutagenic potential of a test compound. […] Lethality has occurred to both populations, histidine+ and histidine-, at the same compound levels in all drugs tested to date.
The results are recorded as mutants test/mutants control.

Like-named read-outs stand apart in the source and are kept apart here.

In the case of `COc1ccc2nc(NC(=O)Nc3ccccc3)sc2c1` [Table 11: phenyl, 6-CH3 O, S, 1-(6-methoxy-2-benzothiazolyl)-3-phenyl urea], the minimal effective dose in data set [1] (sc, subcutaneous, read-out: Lowest Dose Producing 75% Immunosuppression, Subcutaneous) was 0.8 to 1.6 mg/kg; in data set [1] (oral, read-out: Lowest Dose Producing 75% Immunosuppression, Oral), 12.5 to 25 mg/kg; in data set [1] (percutaneous, read-out: Lowest Dose Producing 75% Immunosuppression, Percutaneous), 12.5 mg/kg. Besides, the “in vitro mutagenic potential” value in data set [2] (750 mcg/ml) is listed as “negative”. In addition, the “mutagenicity for point mutations (overall statement)” value in data set [2] (histidine- auxotrophs of Salmonella typhimurium) is “non-mutagenic”. The “Percent GVH Inhibition” value in data set [3] (1 mg/kg × 13, s.c.) is 22%; in data set [3] (2 mg/kg × 13, s.c.), 58%. Moreover, the “in vivo mutagenic potential” value in data set [4] is recorded as “negative”. The “Allograft Survival (Days ± S.E.)” value came to 25.2 ± 2.0 Days in data set [5] (oral) and 27.7 ± 1.0 Days in data set [5] (subcutaneous). In addition, the “IN VITRO QUALITATIVE ACTIVITY” value in data set [6] is given as “N”. The “IN VITRO QUANTITATIVE MT/MC” value in data set [7] is given as “.90”.

For the origin of these results see patent publication US4153709A, “N-Heterocyclic ureas as immune regulants” (Eli Lilly and Company, priority 1977, dated 1979).
